Assay results reported in US11999758B2, “Inhibitors of the YAP/TAZ-TEAD interaction and their use in the treatment of cancer” (INVENTIVA, priority 2018, dated 2024).
pIC50: −log10 of the molar value.

Target: T1, YAP-TEAD interaction (Homo sapiens, UniProt P28347)
T1 construct: expressed in transfected cells; host or cells: HEK293 GripTite 293 MSR (Invitrogen R795-07)
Test: Cell-based TEAD-GAL4 transactivation assay (luciferase reporter)
Conditions: HEK293 cells transfected with TEAD1-Gal4, YAP mutant (S127A, S397A) and luciferase reporter, compounds 0.1 μM to 30 μM; for Emax: HEK293, 24 h, read-out: TEAD-GAL4 Transactivation activity Max Act; for pIC50: 24 h
Summary of the method: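 HEK293 cells transiently transfected with Gal4-DBD–full-length human TEAD1, full-length YAP S127A/S397A (YAP/TEAD ratio 10) and a 5×GAL4-RE TK-luciferase reporter. Six hours later, compounds added semi-log from 0.1 to 30 μM (DMSO 0.5% control) for 24 h. Luciferase read; IC50 from 3-parameter fit.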

T1 sequence (P28347 whole entry): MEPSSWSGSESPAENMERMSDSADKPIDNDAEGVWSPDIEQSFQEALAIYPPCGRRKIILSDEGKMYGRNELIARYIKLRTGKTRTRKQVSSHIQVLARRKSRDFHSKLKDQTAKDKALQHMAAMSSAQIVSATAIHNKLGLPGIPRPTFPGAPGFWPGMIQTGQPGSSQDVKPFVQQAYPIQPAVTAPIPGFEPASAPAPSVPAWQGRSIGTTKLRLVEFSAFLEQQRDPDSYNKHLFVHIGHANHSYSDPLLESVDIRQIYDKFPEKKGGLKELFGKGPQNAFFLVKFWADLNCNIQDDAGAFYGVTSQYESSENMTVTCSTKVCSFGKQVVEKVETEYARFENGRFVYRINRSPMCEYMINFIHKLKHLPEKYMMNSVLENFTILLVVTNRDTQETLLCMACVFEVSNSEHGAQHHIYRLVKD

Row | Emax | pIC50 | Compound
1 | 87% | 5.73 | COCCN(/N=C/c1ccc(B(O)O)c(OC)c1)c1ncnc2ccsc12 [Ex70, [2-methoxy-4-[(E)-[2-methoxyethyl(thieno[3,2-d]pyrimidin-4-yl) hydrazono]methyl]phenyl]boronic acid]
2 | 83% | 5.97 | CN1CCc2c1ncnc2N(C)/N=C/c1ccc2c(c1)COB2O [Ex106, N-[(E)-(1-hydroxy-3H-2,1-benzoxaborol-5-yl)methyleneamino]-N,7-dimethyl-5,6-dihydropyrrolo[2,3-d]pyrimidin-4-amine]
3 | 83% | 5.90 | CCN(/N=C/c1ccc2c(c1)COB2O)c1ncnc2cc(C)sc12 [Ex90, N-ethyl-N-[(E)-(1-hydroxy-3H-2,1-benzoxaborol-5-yl)methyleneamino]-6-methyl-thieno[3,2-d]pyrimidin-4-amine]
4 | 87% | 5.52 | CC1CCC(c2ccc3c(c2)COB3O)=NN1C1=NS(=O)(=O)c2ccccc21 (stereo not shown) [Ex 53, 3-[6-(1-hydroxy-3H-2,1-benzoxaborol-5-yl)-3-methyl-4,5-dihydro-3H-pyridazin-2-yl]-1,2-benzothiazole 1,1-dioxide]
5 | 93% | 5.14 | COc1cc(C2=NN(c3ncnc4c(OC)cccc34)C(C)CC2)ccc1B(O)O (single isomer, unassigned; isomer 1) [Ex124, [2-methoxy-4-[2-(8-methoxyquinazolin-4-yl)-3-methyl-4,5-dihydro-3H-pyridazin-6-yl]phenyl]boronic acid (isomer 1)]
6 | 83% | 6.15 | COCc1csc2c(N(C)/N=C/c3ccc4c(c3)COB4O)ncnc12 [Ex126, N-[(E)-(1-hydroxy-3H-2,1-benzoxaborol-5-yl)methyleneamino]-7-(methoxymethyl)-N-methyl-thieno[3,2-d]pyrimidin-4-amine]
7 | 85% | 5.73 | COc1cc(C2=NN(c3ncnc4ccsc34)C(C)CC2)ccc1B(O)O (stereo not shown) [Ex72, [2-methoxy-4-(3-methyl-2-thieno[3,2-d]pyrimidin-4-yl-4,5-dihydro-3H-pyridazin-6-yl)phenyl]boronic acid]
8 | 79% | 5.76 | CCN(/N=C/c1ccc2c(c1)COB2O)c1ncnc2cc[nH]c12 [Ex81, N-ethyl-N-[(E)-(1-hydroxy-3H-2,1-benzoxaborol-5-yl)methyleneamino]-5H-pyrrolo[3,2-d]pyrimidin-4-amine]
9 | 82% | 5.59 | COCC1CC(n2c(=O)[nH]c3c(N(C)/N=C/c4ccc5c(c4)COB5O)ncnc32)C1 (stereo not shown) [Ex108, 6-[[(E)-(1-hydroxy-3H-2,1-benzoxaborol-5-yl)methyleneamino]-methyl-amino]-9-[3-(methoxymethyl)cyclobutyl]-7H-purin-8-one]
10 | 92% | 5.63 | COc1cc(/C=N/N(CC(C)C)c2ncnc3cc(C)sc23)ccc1B(O)O [Ex69, [4-[(E)-[isobutyl-(6-methylthieno[3,2-d]pyrimidin-4-yl)hydrazono]methyl]-2-methoxy-phenyl]boronic acid]
11 | 81% | 5.29 | CC1OB(O)c2ccc(/C=N/N(C)C3=NS(=O)(=O)c4ccccc43)cc21 (stereo not shown) [Ex 50, N-[(E)-(1-hydroxy-3-methyl-3H-2,1-benzoxaborol-5-yl)methyleneamino]-N-methyl-1,1-dioxo-1,2-benzothiazol-3-amine]
12 | 92% | 5.82 | COc1cc(C2=NN(c3ncnc4c(OC)cccc34)C(C)CC2)ccc1B(O)O (stereo not shown) [Ex 55, [2-methoxy-4-[2-(8-methoxyquinazolin-4-yl)-3-methyl-4,5-dihydro-3H-pyridazin-6-yl]phenyl]boronic acid]
13 | 85% |  | COCCOc1cc(/C=N/N(CC(C)C)C2=NS(=O)(=O)c3ccccc32)ccc1B(O)O [Ex 11, [4-[(E)-[(1,1-dioxo-1,2-benzothiazol-3-yl)-isobutyl-hydrazono]methyl]-2-(2-methoxyethoxy)phenyl]boronic acid]
